For orientation: Ki means a measure of affinity in units of concentration, obtained from inhibition or displacement. Usually half-life stands for how long it takes for the measured level to halve.

The record followed here is PMC9394284, “Discovery of Novel Dual Adenosine A2A and A1 Receptor Antagonists with 1H-Pyrazolo[3,4-d]pyrimidin-6-amine Core Scaffold as Anti-Parkinson’s Disease Agents” (Pharmaceuticals, 2022).

For one series, the target named is T1, hA2A receptors (Homo sapiens, UniProt P29274).
T1 construct: purchased PerkinElmer RBHA2AM
Briefly: radioligand binding to human A2A receptors, HEK-293 membranes. The settings on record: average of duplicate experiments. On the procedure: The binding affinities of synthesized compounds to human A2A receptors (hA2AR) were measured by assessing competitive binding of ligands to radioligand […] using membrane preparations of human recombinant HEK-293 cells expressing human A2A receptors.
The radioligand-binding assays for adenosine receptors were performed at Eurofins Discovery Services (Panlabs, Taiwan). Briefly, stock solutions of the compounds were prepared in DMSO and further diluted with the incubation buffer to the desired concentration. Final DMSO concentrations in the assay were 1.0%. […] Nonspecific binding was estimated in the presence of 100 μM R(-)-PIA. Membranes were filtered and washed 3 times and the filters were counted to determine specifically bound [^3H]DPCPX. Chemical compounds were screened at 10 μM. […] Nonspecific binding was estimated in the presence of 50.0 μM NECA. […] Nonspecific binding was estimated in the presence of 100 μM NECA. Membranes were filtered and washed 3 times and the filters were counted to determine [^3H]MRS1754 specifically bound. […] Nonspecific binding was estimated in the presence of 1.0 μM IB-MECA.
IC50 values were determined by a nonlinear, least-squares regression analysis using MathIQ^TM (ID Business Solutions Ltd., Guildford, UK). […] The Hill coefficient (nH), which defines the slope of the competitive binding curve, was calculated using MathIQ^TM.

Another series deals with T2, hA1 receptor (Homo sapiens, UniProt P30542).
T2 sequence (P30542 1-326): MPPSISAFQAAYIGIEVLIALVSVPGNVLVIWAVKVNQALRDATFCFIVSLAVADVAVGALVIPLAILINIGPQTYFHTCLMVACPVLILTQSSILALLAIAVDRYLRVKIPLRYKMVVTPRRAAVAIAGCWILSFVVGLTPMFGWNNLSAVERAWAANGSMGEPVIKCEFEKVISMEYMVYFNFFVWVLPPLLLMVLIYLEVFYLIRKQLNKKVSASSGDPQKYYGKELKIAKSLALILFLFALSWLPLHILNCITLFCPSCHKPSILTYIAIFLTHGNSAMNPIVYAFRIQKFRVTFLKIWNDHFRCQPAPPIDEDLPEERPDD
As to the kind of experiment: radioligand binding to human A1 receptors, CHO-K1 membranes, [3H]DPCPX. The settings on record: average of duplicate experiments. Here is the method: The radioligand-binding assays for adenosine receptors were performed at Eurofins Discovery Services (Panlabs, Taiwan). Briefly, stock solutions of the compounds were prepared in DMSO and further diluted with the incubation buffer to the desired concentration. Final DMSO concentrations in the assay were 1.0%. For adenosine A1 screening, a 10 μg aliquots of membrane preparations from human recombinant CHO-K1 cells stably expressing A1 receptors (CHO-K1-hA1AR clone3, EPDST, R200510) were incubated with 1 nM [^3H]DPCPX in incubation buffer (20 mM HEPES, pH 7.4, 10 mM MgCl2, 100 mM NaCl 1.40 nM) for 90 min at 25 °C. Nonspecific binding was estimated in the presence of 100 μM R(-)-PIA. Membranes were filtered and washed 3 times and the filters were counted to determine specifically bound [^3H]DPCPX. Chemical compounds were screened at 10 μM. For A2A screening, membrane preparations from human recombinant HEK-293 cells stably expressing A2A receptors (PerkinElmer, RBHA2AM) were incubated with 0.05 μM [^3H]CGS-21680 in incubation buffer (50 mM Tris-HCl, pH 7.4, 10 mM MgCl2, 1 mM EDTA, 2 U/mL Adenosine Deaminase) for 90 min at 25 °C. Nonspecific binding was estimated in the presence of 50.0 μM NECA. Membranes were filtered and washed 3 times and the filters were counted to determine [^3H]CGS-21680 specifically bound. For A2B screening, membrane preparations from human recombinant HEK-293 cells stably expressing A2B receptors (PerkinElmer, ES-013-M) were incubated with 1.6 nM [^3H]MRS1754 in incubation buffer (50 mM Tris-HCl, pH 6.5, 5 mM MgCl2, 1 mM EDTA, 0.01 % Bacitracin) for 90 min at 25 °C. Nonspecific binding was estimated in the presence of 100 μM NECA. Membranes were filtered and washed 3 times and the filters were counted to determine [^3H]MRS1754 specifically bound. For A3 screening, membrane preparations from human recombinant CHO-K1 cells stably expressing A3 receptors (PerkinElmer, ES-012-M) were incubated with 0.5 nM [^125I]AB-MECA in incubation buffer (25 mM HEPES, pH 7.4, 5 mM MgCl2, 1 mM CaCl2, 0.1 % BSA) for 60 min at 25 °C. Nonspecific binding was estimated in the presence of 1.0 μM IB-MECA.
IC50 values were determined by a nonlinear, least-squares regression analysis using MathIQ^TM (ID Business Solutions Ltd., Guildford, UK). Where inhibition constants (Ki) were presented, the Ki values were calculated using Cheng and Prusoff equation [18] using the observed IC50 of the compound, the concentration of radioligand employed in the assay, and the historical values for the KD of the ligand (obtained experimentally at Eurofins Panlabs, Inc.). The Hill coefficient (nH), which defines the slope of the competitive binding curve, was calculated using MathIQ^TM.

Another series in a line: solubility (qualitative). The series is classed as physicochemical. The settings on record: CF3 next to aniline, difficulties in forming salt.
Series [1] is described as follows: metabolic stability in cryopreserved mouse hepatocytes. On the procedure:
(§1) Metabolic stability of 11o was determined in cryopreserved hepatocytes from mice, rats, dogs, monkeys and human according to the SOPs of Frontage Laboratories Inc. Briefly, cryopreserved hepatocytes for pre-clinical animals and for human (BioIVT, Westbury, NY, USA) were thawed in a 37 °C water bath with gentle shaking until ice had almost melted. The suspensions were immediately transferred to a centrifuge tube (50 mL) containing pre-warmed thawing media at 37 °C with gentle handshaking to prevent the cells from settling. Cell suspensions were centrifuged at 50× g and 4 °C for 5 min. The supernatant was discarded and the pellets were resuspended in prewarmed incubation media (5 mL) at 37 °C. The percentage of viable cells in the suspension was determined by Trypan blue staining method to ensure viability of ≥70 %. […] The samples were centrifuged and aliquots of the supernatant were analyzed for parent compounds by LC/MS/MS using suitable multiple reaction monitoring (MRM) transitions. […] The disappearance of 11o and midazolam was monitored by LC/MS/MS (MRM) analysis of the hepatocyte extracts at each time point. The peak area ratio of the analyte to internal standard was obtained for each sample and the rate of disappearance of 11o was assessed by comparing the peak area ratios at various time points to the peak area ratio obtained at t = 0. The t1/2 is obtained (using the linear portion of semi-log plot of the area ratio vs. time) and the CLint values determined using well-stirred model.

The nature of series [2]: metabolic stability in cryopreserved rat hepatocytes. Here is the method:
as §1

The nature of series [3]: metabolic stability in cryopreserved dog hepatocytes. Here is the method: as §1
Series [4] in a line: metabolic stability in cryopreserved monkey hepatocytes. On the procedure: as §1
Series [5] in a line: metabolic stability in cryopreserved human hepatocytes. On the procedure:
as §1

T1 sequence (P29274 whole entry): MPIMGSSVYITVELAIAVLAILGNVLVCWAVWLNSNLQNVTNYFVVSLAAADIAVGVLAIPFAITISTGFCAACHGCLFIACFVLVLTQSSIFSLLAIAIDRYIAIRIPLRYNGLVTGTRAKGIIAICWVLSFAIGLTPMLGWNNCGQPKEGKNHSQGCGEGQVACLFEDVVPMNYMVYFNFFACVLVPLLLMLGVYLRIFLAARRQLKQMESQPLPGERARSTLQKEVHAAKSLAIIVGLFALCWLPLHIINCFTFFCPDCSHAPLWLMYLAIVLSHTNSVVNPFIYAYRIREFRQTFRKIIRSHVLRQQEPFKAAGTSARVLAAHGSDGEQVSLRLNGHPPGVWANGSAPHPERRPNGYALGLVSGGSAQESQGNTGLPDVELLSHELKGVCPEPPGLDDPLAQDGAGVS

On to `N#Cc1ccnc(-c2nc(N)nc3c2cnn3Cc2ccc(N)c(C(F)(F)F)c2)c1` [11v, 2-[6-Amino-1-[[4-amino-3-(trifluoromethyl)phenyl]methyl]pyrazolo[3,4-d]pyrimidin-4-yl]pyridine-4-carbonitrile], for which the Ki worked out at 0.0102 µM on hA2A receptors and 0.25 µM on hA1 receptor. Further, the “solubility (in words)” value in “solubility (qualitative)” was “greatly reduced solubility”.

Take `N#Cc1cccc(-c2nc(N)nc3c2cnn3Cc2ccc(N)c(C(F)(F)F)c2)c1` [11w, 3-(6-Amino-1-(4-amino-3-(trifluoromethyl)benzyl)-1H-pyrazolo[3,4-d]pyrimidin-4-yl)benzonitrile]: the Ki on hA2A receptors was found to be 0.00194 µM; on hA1 receptor, 0.049 µM. The “solubility (in words)” value in the series “solubility (qualitative)” is reported as “greatly reduced solubility”.

In the case of `N#Cc1cccc(-c2nc(N)nc3c2cnn3Cc2ccc(N)c(C(F)(F)F)c2)c1F` [11x, 3-(6-Amino-1-(4-amino-3-(trifluoromethyl)benzyl)-1H-pyrazolo[3,4-d]pyrimidin-4-yl)-2-fluorobenzonitrile], the Ki came to 0.00271 µM at hA2A receptors and 0.033 µM at hA1 receptor. Besides, the “solubility (in words)” value in “solubility (qualitative)” is recorded as “greatly reduced solubility”.

For `Cc1ncc2n1-c1ccc(Cl)cc1C(c1ccccc1F)=NC2` [Midazolam, reference compound], the half-life at 0.2 μM in series [1] (CD-1, mouse, hepatocytes) is 49.9 min; in series [2] (Sprague Dawley, rat, hepatocytes), 21.9 min; in series [3] (beagle, dog, hepatocytes), 32.8 min; in series [4] (monkey, hepatocytes) it was 36 min; in series [5] (human, hepatocytes) it was 68.3 min. The “Intrinsic Clearance” value in series [1] (mouse hepatocytes, midazolam 0.2 μM) is 0.0139 mL/min/10^6 Cells; in series [2] (rat hepatocytes, midazolam 0.2 μM), 0.0317 mL/min/10^6 Cells; in series [3] (dog hepatocytes, midazolam 0.2 μM), 0.0211 mL/min/10^6 Cells; in series [4] (monkey hepatocytes, midazolam 0.2 μM), 0.0192 mL/min/10^6 Cells; in series [5] (human hepatocytes, midazolam 0.2 μM), 0.0101 mL/min/10^6 Cells.
